According to ChEMBL document CHEMBL4152185, “Therapeutic potential of songorine, a diterpenoid alkaloid of the genus Aconitum” (Eur J Med Chem, 2018):

How the values were obtained:
[1] = Antiarrhythmic index, ratio of LD50 for iv dosed rat to ED50 for antiarrhythmic activity in iv dosed aconitine-induced rat arrhythmia model; assay type: toxicity, organism-based; settings: in vivo, read-out: Ratio LD50/ED50
Rattus norvegicus = assay: Antiarrhythmic activity in iv dosed aconitine-induced rat arrhythmia model administered 3 to 5 mins prior to aconitine challenge by electrocardiographic method; assay type: functional
[2] = Acute toxicity in iv dosed rat; assay type: organism-based; settings: in vivo

For C=C1[C@H]2C[C@@]3([C@@H]1OC(C)=O)[C@@H](CC2=O)[C@@]12[C@@H](OC(C)=O)CC[C@@]4(C)CN(CC)[C@@H]1[C@@H]3C[C@H]42, the selectivity ratio [1] was 7.3, the ED50 (Rattus norvegicus) was 18 mg/kg and the LD50 [2] was 131 mg/kg.
Work on C=C1[C@H]2C[C@@]3([C@@H]1O)[C@@H](CC2=O)[C@@]12[C@@H](OC(C)=O)CC[C@@]4(C)CN(CC)[C@@H]1[C@@H]3C[C@H]42 yielded a selectivity ratio [1] of 10, an ED50 (Rattus norvegicus) of 15 mg/kg and an LD50 [2] of 150 mg/kg.
Work on C=C1[C@H]2C[C@@]3([C@@H]1O)[C@@H](CC2=O)[C@@]12[C@@H](OC(=O)c4ccccc4)CC[C@@]4(C)CN(CC)[C@@H]1[C@@H]3C[C@H]42 yielded a selectivity ratio [1] of 108, an ED50 (Rattus norvegicus) of 0.38 mg/kg and an LD50 [2] of 41 mg/kg.
For C=C1[C@H]2C[C@@]3([C@@H]1O)[C@@H](CC2=O)[C@]12[C@@H]4C[C@H]3[C@H]1N(CC)C[C@]4(C)CC[C@@H]2O [SONGORINE], the selectivity ratio [1] was 19, the ED50 (Rattus norvegicus) was 7.3 mg/kg and the LD50 [2] was 142 mg/kg.
